Results on five compounds are retold here after article PMC12082738 (Journal of Enzyme Inhibition and Medicinal Chemistry, 2025).

One experiment has as its target E. coli β-GUS (Escherichia coli, UniProt P05804). The experiment can be described thus: β-GUS inhibition assay. The format is biochemical. The settings on record: for Inhibition type, β-GUS: Lineweaver–Burk and Dixon plots, substrate 4-MUG.
The next experiment concerns L6 myotubes. The following applies: cited from earlier work.
The subject of experiment [1] is platelet-activating factor acetyltransferase. The settings on record: read-out: IC50 platelet-activating factor acetyltransferase; cited from earlier work.
A further experiment deals with colorectal cancer cells. The settings on record: 7.1 μM; cited from earlier work.
Experiment [2] has as its target protein tyrosine phosphatase-1B. The settings on record: read-out: IC50 protein tyrosine phosphatase-1B; cited from earlier work.
The next experiment addresses α-amylase. The settings on record: read-out: IC50 α-amylase; cited from earlier work.
Experiment [3] relates to human umbilical vein endothelial cells. The following applies: cited from earlier work.
Another experiment has as its target S. cerevisiae α-GUS (Saccharomyces cerevisiae, UniProt P07265). The experiment can be described thus: α-GUS inhibition assay. The format is biochemical.
The subject of the next experiment is β-GUS. The following applies: read-out: IC50 against β-GUS; cited from earlier work.
For another experiment, the system named is α-GUS. The settings on record: read-out: IC50 against α-GUS; cited from earlier work.
[4] abbreviates: substrate kinetics, preliminary kinetic assay.

E. coli β-GUS, sequence (P05804 whole entry): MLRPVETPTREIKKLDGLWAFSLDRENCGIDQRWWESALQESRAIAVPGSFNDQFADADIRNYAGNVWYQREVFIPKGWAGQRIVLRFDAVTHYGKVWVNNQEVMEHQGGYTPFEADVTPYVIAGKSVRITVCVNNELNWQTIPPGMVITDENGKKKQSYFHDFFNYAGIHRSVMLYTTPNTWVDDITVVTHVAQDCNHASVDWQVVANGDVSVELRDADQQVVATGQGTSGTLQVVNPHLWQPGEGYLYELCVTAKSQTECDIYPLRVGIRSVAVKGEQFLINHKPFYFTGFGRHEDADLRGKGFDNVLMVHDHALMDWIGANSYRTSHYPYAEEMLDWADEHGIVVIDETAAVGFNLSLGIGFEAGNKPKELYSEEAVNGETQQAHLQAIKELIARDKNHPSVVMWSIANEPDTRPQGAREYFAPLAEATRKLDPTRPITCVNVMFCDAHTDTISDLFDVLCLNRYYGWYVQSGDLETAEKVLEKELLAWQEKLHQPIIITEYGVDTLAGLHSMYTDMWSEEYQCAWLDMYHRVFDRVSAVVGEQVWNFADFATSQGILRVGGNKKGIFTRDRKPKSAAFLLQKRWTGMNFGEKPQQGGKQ
S. cerevisiae α-GUS, sequence (P07265 whole entry): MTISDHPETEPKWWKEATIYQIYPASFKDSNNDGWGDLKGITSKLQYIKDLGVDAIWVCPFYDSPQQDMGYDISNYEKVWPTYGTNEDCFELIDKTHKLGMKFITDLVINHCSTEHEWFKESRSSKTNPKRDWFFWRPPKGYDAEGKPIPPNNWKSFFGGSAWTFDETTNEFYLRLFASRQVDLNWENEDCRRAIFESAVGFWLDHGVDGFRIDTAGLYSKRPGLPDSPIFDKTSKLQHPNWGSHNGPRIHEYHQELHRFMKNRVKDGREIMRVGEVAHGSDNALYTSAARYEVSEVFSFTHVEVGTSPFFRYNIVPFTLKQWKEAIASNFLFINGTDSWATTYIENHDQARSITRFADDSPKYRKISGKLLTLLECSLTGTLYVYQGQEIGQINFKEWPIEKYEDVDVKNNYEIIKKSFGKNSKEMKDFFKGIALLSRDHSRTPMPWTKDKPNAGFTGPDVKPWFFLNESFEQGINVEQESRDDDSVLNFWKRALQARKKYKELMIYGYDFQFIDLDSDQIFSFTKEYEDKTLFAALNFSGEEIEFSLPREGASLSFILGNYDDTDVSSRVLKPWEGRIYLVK

Take `Cc1cc(=O)oc2cc(O[C@@H]3O[C@H](C(=O)O)[C@@H](O)[C@H](O)[C@H]3O)ccc12` [4-MUG, 4-Methylumbelliferyl-β-D-glucuronide, reference compound]: the “Vmax for 4-MUG hydrolysis by β-GUS” value on E. coli β-GUS (setting [4]) was found to be 7.21 ± 0.10 µmol/min/mg.

Take `CC(C)=CCc1c(O)c(CC=C(C)C)c2occ(-c3ccc(O)cc3)c(=O)c2c1O` [DPG, 6,8-diprenylgenistein]: the “concentration increasing basal and insulin-stimulated glucose uptake” value in the experiment on L6 myotubes was above 10 µM. The IC50 – broadly, the concentration at which inhibition is half-maximal – was 4.05 ± 0.16 µM at E. coli β-GUS; 19 µM in experiment [1]; 2.3 to 28 µM in [2]; 14.8 µM on α-amylase; 60.6 ± 10.3 µM at S. cerevisiae α-GUS (IC50 for inhibition of α-GUS, substrate PNPG 500 μM). For the same compound, the inhibition constant (Ki) (in general, a measure of affinity in units of concentration, obtained from inhibition or displacement) on E. coli β-GUS came out at 2620 ± 100 nM; on S. cerevisiae α-GUS it was 11.4 ± 2.2 µM. The “Inhibition type, β-GUS” value at E. coli β-GUS is “Non-competitive”; at E. coli β-GUS (listed as Diprenylgenistein), “competitive”. Further, in the experiment with colorectal cancer cells, the “effect on colorectal cancer cells” value is “trigger dual apoptosis and autophagy”. Further, the “concentration reversing high glucose induced injury” value in [3] is above 2.5 µM. In addition, the “Inhibition type, α-GUS” value on S. cerevisiae α-GUS (Lineweaver–Burk and Dixon plots, substrate PNPG) is on record as “Un-competitive”.

At E. coli β-GUS, `O=C(O)[C@@H](O)[C@H]1OC(=O)[C@H](O)[C@H]1O` [DSL, D-Saccharic acid 1,4-lactone, reference compound] gave an IC50 of 55 ± 7.6 µM.

`O=[N+]([O-])c1ccc(O[C@H]2O[C@H](CO)[C@@H](O)[C@H](O)[C@H]2O)cc1` [PNPG, 4-Nitrophenyl-α-D-glucopyranoside, reference compound]: the “Vmax for PNPG hydrolysis by α-GUS” value on S. cerevisiae α-GUS (setting [4]) came to 1.05 ± 0.03 μmol/min/U.

Turning to `O=c1c(-c2ccc(O)cc2)coc2cc(O)ccc12` [daidzein], the concentration for half-maximal inhibition (IC50) in the experiment with β-GUS and in the experiment with α-GUS was above 100 µM each time.
